These results are taken from patent US8715718B2, “Extracellular matrix production from nanoscale substrate” (Rutgers, The State University of New Jersey, priority 2006, dated 2014).

Data set [1] has as its system Human foreskin fibroblasts, HFF. Nature of the data set: Fibronectin matrix assembly by HFF, immunofluorescence and image analysis. The data set is classed as cell-based. As for the experimental part:
(§1) Labtek chamber slides (Nalge Nunc International, Rochester, N.Y.) were coated overnight at 4° C. with FNf-ANPs or FNf as described above to attain equivalent display with FNf. […] Fibroblasts were seeded at densities and incubated for times described in each figure legend. […] Samples were then incubated with primary antibodies in blocking buffer (3% BSA) for 1 hour, washed, and further incubated with the appropriate secondary antibodies for 1 hour. Where indicated, cells were also incubated with TexasRed X- or fluoroscein-conjugated phalloidin to visualize F-actin. Cells were examined using a Leica SP/2 Confocal Laser Scanning Microscope.

Data set [2] has the same test system. In words: Cell morphology by F-actin staining and shape factor. The class given is cell-based. The method, then:
as §1
To characterize the effect of nanoparticle display of FNf on early cellular responses, adhesion and morphology were examined. […] Next, we extended the culture time of human foreskin fibroblasts (“HFF”) on FNf-ANPs or equivalent FNf, and evaluated cellular morphology. HFF (2.3×10^4 cells/cm^2) were cultured for 5 hours on surfaces prepared as described in Materials and Methods, then stained for F-actin with Texas Red X-conjugated phalloidin. Bar, 40 μm.
(§2) To analyze cellular morphology, shape factors were quantified for all conditions.

Data set [3] has the same test system. Nature of the data set: Cell adhesion assay (hexosaminidase). The data set is classed as cell-based. As for the experimental part: To quantify cell attachment to FNf-ANPs, 96-well non-tissue culture dishes were coated overnight at 4° C. with FNf-ANPs or FNf as described above. Wells were washed with PBS and blocked with 1% bovine serum albumin. After washing with PBS, HFF were plated at 2.5×10^4 cells/well and incubated for 60 minutes at 37° C. Medium and unbound cells were removed by inversion of the plate and two washes with PBS. Quantification of the number of adherent cells was performed using the hexosaminidase assay. Briefly, substrate composed of a 1:1 mixture of 0.5% Triton-X 100 and 7.5 mM β-nitrophenyl N-acetyl β-D glucosaminide in 0.1 M citrate buffer, pH 5.0, was added to each well and incubated for 90 minutes at 37° C. The reaction was terminated with 50 mM glycine/5 mM EDTA, pH 10.4 and the absorbance read at 405 nm on a multiwell plate reader.
as §2

Data set [4] concerns fibroblasts. Nature of the data set: Cell attachment to ligand-ANC (hexosaminidase assay). The class given is cell-based, human. The conditions noted are these: 1 hour, equal ligand density, differential presentation. The method, then: To quantify cell attachment to ligand-ANC, 96-well non-tissue culture dishes were passively coated overnight at 4° C. with varying ligand density and presentation as described above. Wells were washed with PBS and blocked with 1% bovine serum albumin. After washing, fibroblasts were seeded at 25,000 cells/well and incubated for 1 hour at 37° C. Substrates were washed with PBS to remove unbound cells. Adhered cells were quantified using the hexosaminidase assay. Briefly, a substrate mixture composed of 1 part […] and 1 part 7.5 mM [3-nitrophenyl N-acetyl [3-D glucosaminide (Sigma) in 0.1 M citrate buffer (pH 5.0), was added to each well and incubated for 90 minutes at 37° C. The reaction was terminated with a mixture of 50 mM glycine (Sigma) and 5 mM EDTA (Sigma) (pH 10.4). The absorbance was read at 405 nm on a multiwell plate reader.
Cell attachment is one of the earliest cell anchorage responses to substrates. To examine if the nanoscale presentation of ligand could alter early cell binding and attachment events, fibroblasts were seeded on ligand-adsorbed substrates of three different ligand densities with different presentations (FIG. 7a). […] Cells were incubated for 1 hour, unbound cells were washed, and the number of adherent cells was quantified using the hexosaminidase assay. […]

The subject of data set [5] is fibroblasts. Nature of the data set: Cell morphology on ligand-ANC (FITC-phalloidin). The class given is cell-based, human. As for the experimental part: Cell morphology was examined as a function of differential ligand presentation and nanocarrier size at two time points. Passively adsorbed substrates were prepared as described above. Fibroblasts that were serum deprived at least 12 hours before hand were seeded in serum free media for 1 or 5 hours at 37° C. Substrates were washed after the designated incubation time, and fixed with 3.7% formaldehyde for 15 minutes at room temperature. Substrates were washed again and permeabilized with Triton-X 100 for 15 minutes at room temperature. Substrates were washed, blocked with 1% BSA for 15 minutes at room temperature, washed again, and stained with FITC phalloidin (Molecular Probes) for 20 minutes. Substrates were washed and stored at 4° C. until image acquisition. Images were acquired with a Leica TCS SP/2 at 63×.
The effects of ligand presentation on cytoskeletal morphology were examined by labeling F-actin at two different time points (FIG. 7b). In that experiment, cell morphology was examined of fibroblasts cultured at the optimal ligand density for cell attachment (2.2 μg/cm^2) at 1 hour (left column) and 5 hours (right column) using FITC-phalloidin.

For data set [6], the system named is Human foreskin fibroblasts. In words: Imaging of fibronectin matrix assembly as a function of carrier size and ligand density. The data set is classed as cell-based. The conditions noted are these: serum-free, 24 hours.
Method: Substrates with equal levels of ligand but differential presentation were adsorbed in 8-well Labtek chamber slides overnight at 4° C. Substrates were then washed generously with PBS and blocked with BSA for 1 hour at 37° C. Fibroblasts were serum-starved at least 12 hours prior to trypsinization and re-plated at a density of 35,000 cells per well in serum free media. Cells were then cultured for 24 hours at 37° C. After 24 hour incubation, media was removed and substrates were washed with DPBS with calcium and magnesium. Cells were fixed with 1% formaldehyde for 9 minutes and washed with DPBS with calcium and magnesium. Cells were permeabilized with Triton-X 100 for 15 minutes and washed with DPBS with calcium and magnesium and blocked with 1% BSA for 1 hour at 37° C. Substrates were washed and primary antibody IST-4 (Sigma) for fibronectin that binds to the 5th type III repeat of human plasma fibronectin was incubated at a 1:100 dilution in PBS overnight at 4° C. Substrates were washed and incubated with FITC-conjugated donkey anti-mouse IgG (Jackson Immunolabs, West Grove, Pa.) at a 1:200 dilution for 30 minutes at room temperature, and were then washed and incubated with Texas-red phalloidin (Molecular Probes, Eugene, Oreg.) for 20 minutes at room temperature. Substrates were washed and stored at 4° C. until image acquisition. […]

As to `C[C@@H](N)[C@H]1CC[C@H](C(=O)Nc2ccncc2)CC1` [Y27632], the “effect on FNf-ANP induced matrix assembly by HFF” value in data set [1] (3 μM Y27632 added 2 hours after seeding on FNf-ANP 1.70 μg/cm^2, overnight) is “abrogated”. In addition, the “fibronectin matrix fibrils in the extracellular space compared to control conditions” value in data set [1] (HFF on FNf-ANP treated with Y27632, image analysis) is on record as “significantly decreased levels”.
Turning to “FNf: recombinant GST fusion of fibronectin fragment comprising repeats III9 and III10, adsorbed alone as comparator”, the “cell spreading (morphology)” value in data set [2] (45 minutes post seeding) is listed as “minimally spread”. For the same compound, in data set [2] (5 hours of culture, F-actin staining), the cell morphology entry is “flattened, well-spread appearance”. Moreover, the “shape factor, (perimeter)^2/(4π(area))” value in data set [2] (5 hours, about 25 cells per condition, all FNf densities) is given as “around 4”. Also, the cell attachment entry in data set [3] (60 minutes, lowest amount of ligand tested) is on record as “no detectable attachment”. The “cellular adhesion over the FNf concentration range” value in data set [3] (adsorbed FNf up to the highest concentration) is recorded as “no significant increase in cellular adhesion”. The “deposition of fibronectin into the ECM when presented via the culture medium” value in data set [1] (HFF on bare coverglass, ligand added to media, overnight) is “not sufficient”. Besides, the “cell attachment at a specific ligand density” value in the data set with fibroblasts [4] is “significant attachment, but to a lesser degree”. Besides, the “cell spreading / morphology at 1 hour” value in the data set on fibroblasts [5] (2.2 μg/cm^2, 1 hour) is listed as “some filopodial projections”. Besides, the “cell morphology at 5 hours” value in the data set with fibroblasts [5] (2.2 μg/cm^2, 5 hours) is given as “well-spread with well defined stress fibers”.
For “whole length mouse fibronectin: whole length mouse fibronectin (Innovative Research) adsorbed as control substrate”, in data set [6], the “fibronectin fibrils on control substrates” value is recorded as “Fibrils were not seen”. The “cell spreading / morphology on control substrates” value with fibroblasts [5] (control substrates) is reported as “polarized morphology consistent with migrating cells”.
